Values after ≈ are worked out from the molar mass of the structure shown. Like-named read-outs stand apart in the source and are kept apart here. A value given as a limit tells only on which side of the number the result lay.

Holding throughout (type): cell-based
The subject of assay [1] is Staphylococcus aureus IFO 13276. Nature of the assay: in vitro antibacterial activity, agar plate dilution method (MIC). The settings on record: IFO13276, read-out: Antimicrobial spectrum MIC. As to the method:
(§1) The in vitro antibacterial activities of the compounds provided by the present invention were tested by a standard method of Chemotherapy Society of Japan, i.e. an agar plate dilution method disclosed in CHEMOTHERAPY Vol. 29, pages 76–79, 1981, and the activities of them on anaerobic bacteria were tested by a method disclosed in CHEMOTHERAPY Vol. 27, 559–590, 1979. The results were shown in terms of the minimum inhibition concentration (MIC, μg/ml) for the growth of the bacteria.

In assay [2] the test system is Staphylococcus aureus IID 803(Smith). The assay is described as above. The settings on record: IID803, read-out: Antimicrobial spectrum MIC. As to the method:
as §1

Assay [3] concerns Enterococcus faecalis CSJ 1212. Described as above. The settings on record: CSJ1212, read-out: Antimicrobial spectrum MIC. As to the method: as §1
Assay [4] relates to Micrococcus luteus KI 3122. Described as above. The settings on record: KI3122, read-out: Antimicrobial spectrum MIC. As to the method:
as §1

Assay [5] deals with Staphylococcus aureus JCM 2874. Described as above. To be noted: JCM2874, read-out: Antimicrobial spectrum MIC. As to the method:
as §1

The test system of assay [6] is Haemophilus influenzae IID 984. The assay is described as above. To be noted: IID984, read-out: Antimicrobial spectrum MIC. As to the method:
as §1

Assay [7] relates to Staphylococcus aureus Clin-211(MRSA). Described as above. The settings on record: read-out: Antimicrobial spectrum MIC. As to the method: as §1
The subject of assay [8] is Bacillus subtilis JCM 2499. The description is as above. The settings on record: JCM2499, read-out: Antimicrobial spectrum MIC. As to the method:
as §1

Assay [9] concerns Enterococcus faecalis RIMD 3116001. The description is as above. The settings on record: RIMD3116001, read-out: Antimicrobial spectrum MIC. As to the method: as §1
Assay [10] has as its system Streptococcus pneumoniae IID 553. The assay is described as above. The settings on record: IID553, read-out: Antimicrobial spectrum MIC. As to the method: as §1
The subject of assay [11] is Branhamella catarrhalis IID 5233. The description is as above. To be noted: Moraxella catarrhalis, IID5233, read-out: Antimicrobial spectrum MIC. As to the method:
as §1

In assay [12] the test system is Escherichia coli IFO 12734. The description is as above. To be noted: IFO12734, read-out: Antimicrobial spectrum MIC. As to the method: as §1
Assay [13] has as its system Pseudomonas aeruginosa CSJ 1853. Described as above. The settings on record: CSJ1853, read-out: Antimicrobial spectrum MIC. As to the method:
as §1

The subject of assay [14] is Klebsiella pneumoniae IID 865. Described as above. To be noted: IID865, read-out: Antimicrobial spectrum MIC. As to the method: as §1
The test system of assay [15] is Staphylococcus epidermidis IFO 12993. The description is as above. To be noted: IFO12993, read-out: Antimicrobial spectrum MIC. As to the method: as §1
For assay [16], the system named is Propionibacterium acnes JCM 6425. Nature of the assay: in vitro antibacterial activity on anaerobic bacteria (MIC). To be noted: Cutibacterium acnes, JCM6425; Propionibacterium acnes JCM 6425, anaerobic; read-out: Antimicrobial spectrum MIC. As to the method: as §1
For assay [17], the system named is Bacteroides fragilis GAI 0675. The description is as above. The settings on record: GAI0675; Bacteroides fragilis GAI 0675, anaerobic; read-out: Antimicrobial spectrum MIC. As to the method:
as §1

Assay [18] relates to Bacteroides thetaiotaomicron ATCC 29741. The assay is described as above. As to the method: as §1

Take `COc1ccc(-c2ccn3c(=O)c(C(=O)O)cc(C4CC4)c3c2C)cc1CN` [Example 121, 8-(3-Aminomethyl-4-methoxyphenyl)-1-cyclopropyl-9-methyl-4-oxo-4H-quinolizine-3-carboxylic acid]: the MIC in [1] turned out to be 0.016 µg/mL (≈ 0.0423 µM); in [2], 0.016 µg/mL (≈ 0.0423 µM); in assay [3], 0.031 µg/mL (≈ 0.0819 µM); in assay [4], 0.125 µg/mL (≈ 0.33 µM); in [5], 0.016 µg/mL (≈ 0.0423 µM); in assay [6], 0.008 µg/mL (≈ 0.0211 µM). Besides, the MIC in assay [7] is 0.25 µg/mL (≈ 0.661 µM); in [8], at most 0.004 µg/mL; in assay [9] it was 0.063 µg/mL (≈ 0.166 µM); in assay [10], 0.031 µg/mL (≈ 0.0819 µM); in assay [11] it was 0.063 µg/mL (≈ 0.166 µM); in assay [12] it was 0.063 µg/mL (≈ 0.166 µM). Besides, the MIC was 0.5 µg/mL (≈ 1.32 µM) in assay [13]; at most 0.004 µg/mL in assay [14]; 0.031 µg/mL (≈ 0.0819 µM) in assay [15]; 0.25 µg/mL (≈ 0.661 µM) in assay [16]; 0.5 µg/mL (≈ 1.32 µM) in assay [17]; 4 µg/mL (≈ 10.6 µM) in assay [18] (ATCC29741, Bacteroides thetaiotaomicron ATCC 29741, anaerobic, read-out: Antimicrobial spectrum MIC).

Consider `C[C@H]1COc2c(N3CCN(C)CC3)c(F)cc3c(=O)c(C(=O)O)cn1c23` [Levofloxacin, reference compound], for which the MIC in [1] was 0.125 µg/mL (≈ 0.346 µM); in [2] it was 0.125 µg/mL (≈ 0.346 µM); in [3], 0.5 µg/mL (≈ 1.38 µM); in [4], 1 µg/mL (≈ 2.77 µM); in assay [5], 0.25 µg/mL (≈ 0.692 µM); in assay [6], 0.016 µg/mL (≈ 0.0443 µM). In addition, the MIC in [7] is 4 µg/mL (≈ 11.1 µM); in assay [8], 0.031 µg/mL (≈ 0.0858 µM); in assay [9], 1 µg/mL (≈ 2.77 µM); in assay [10], 0.5 µg/mL (≈ 1.38 µM); in assay [11], 0.031 µg/mL (≈ 0.0858 µM); in assay [12] it was 0.031 µg/mL (≈ 0.0858 µM). In addition, the MIC turned out to be 0.5 µg/mL (≈ 1.38 µM) in assay [13]; 0.008 µg/mL (≈ 0.0221 µM) in assay [14]; 0.25 µg/mL (≈ 0.692 µM) in [15]; 0.25 µg/mL (≈ 0.692 µM) in assay [16]; 0.5 µg/mL (≈ 1.38 µM) in assay [17]; 4 µg/mL (≈ 11.1 µM) in [18] (Bacteroides thetaiotaomicron, ATCC29741, read-out: Antimicrobial spectrum MIC).
